Source: EPA's ToxRefDB 2

Experiments:
rat [1] = conditions: Subchronic oral toxicity in rodents, sprague dawley, Feed, dose end: 91 day, group: systemic
rat [2] = conditions: Prenatal developmental toxicity study, sprague dawley, Oral, Gavage/Intubation, dose end: 15 GD
mouse [3] = conditions: Combined chronic toxicity/carcinogenicity; cd1; Oral; [Not Specified]; dose end: 18 month; group: systemic; systemic / pathology microscopic / lung / adenoma + systemic / pathology microscopic / lung / carcinoma
rabbit = conditions: Prenatal developmental toxicity study, new zealand white, Oral, Gavage/Intubation, dose end: 18 GD
dog [4] = conditions: Chronic toxicity; beagle; Oral; Capsule; dose end: 26 week; group: systemic; systemic / in life observation / clinical signs / defecation (diarrhea) + systemic / in life observation / clinical signs / mucoid stools + …
dog [5] = conditions: Subchronic oral toxicity in nonrodent, beagle, Capsule, dose end: 91 day, group: systemic
rat [6] = conditions: Chronic toxicity; other; Oral; Feed; dose end: 24 month; group: systemic; systemic / organ weight / testes / nos + systemic / pathology gross / testes / reduced size + systemic / pathology microscopic / testes / …
rat [7] = conditions: Multigenerational reproductive toxicity study, sprague dawley, Oral, Feed, dose end: 2 generation
mouse [8] = conditions: Carcinogenicity, b6c3f1, Oral, Feed, dose end: 105 week, group: systemic
rat [9] = conditions: Subchronic oral toxicity in rodents, fischer, Feed, dose end: 13 week
mouse [10] = conditions: Subchronic oral toxicity in rodents, b6c3f1, Feed, dose end: 13 week, group: systemic
[11] = systemic / organ weight / testes / nos + systemic / in life observation / body weight / body weight + systemic / in life observation / food …
[12] = group: developmental, developmental / developmental malformation / bone / incomplete ossification + developmental / developmental malformation / general / [other…
[13] = group: maternal, systemic / in life observation / body weight / body weight + systemic / in life observation / clinical signs / fat, discoloration + systemic…
[14] = group: developmental, systemic / in life observation / body weight / fetal weight
[15] = group: maternal, systemic / in life observation / clinical signs / anogenital staining + systemic / in life observation / clinical signs / defecation + …
[16] = systemic / clinical chemistry / alanine aminotransferase (alt/sgpt) / alanine aminotransferase (alt/sgpt) + systemic / in life observation…
[17] = systemic / in life observation / body weight / body weight
[18] = group: parental, systemic / pathology gross / testes / degeneration + systemic / pathology microscopic / testes / aspermia + systemic / pathology microscopic…
[19] = group: reproductive, reproductive / reproductive performance / fertility / fertility + reproductive / reproductive performance / mating / mating
[20] = systemic / in life observation / body weight / body weight + systemic / hematology / reticulocyte / reticulocyte
[21] = group: developmental, developmental / offspring survival late / [other] / [other]
[22] = group: maternal, reproductive / offspring survival early / birth index / birth index
[23] = group: maternal, reproductive / reproductive performance / estrous cycle / length
[24] = group: systemic, systemic / pathology microscopic / spleen / hemosiderosis + systemic / in life observation / clinical signs / fur (altered appearance)
[25] = systemic / in life observation / body weight / body weight + systemic / in life observation / body weight / body weight gain + systemic / …

SMILES: CC1(C)CN=C(NN=C(C=Cc2ccc(C(F)(F)F)cc2)C=Cc2ccc(C(F)(F)F)cc2)NC1 [Hydramethylnon]
- LEL (rat [1]; systemic / organ weight / testes / nos): 2.5 mg/kg/day
- NEL (rat [1]; [11]): 1.25 mg/kg/day
- NOAEL (rat [1]; [11]): 2.5 mg/kg/day
- LOAEL (rat [1]; systemic / organ weight / testes / nos + systemic / pathology microscopic / testes / atrophy): 5 mg/kg/day
- LEL (rat [2]; [12]): 30 mg/kg/day
- LOAEL (rat [2]; [12]): 30 mg/kg/day
- NEL (rat [2]; [12]): 10 mg/kg/day
- NOAEL (rat [2]; [12]): 10 mg/kg/day
- LEL (rat [2]; group: maternal, systemic / in life observation / body weight / body weight + systemic / in life observation / clinical signs / fat, discoloration): 10 mg/kg/day
- LOAEL (rat [2]; [13]): 30 mg/kg/day
- NEL (rat [2]; [13]): 3 mg/kg/day
- NOAEL (rat [2]; [13]): 10 mg/kg/day
- LEL (mouse [3]): 4.45 mg/kg/day
- LOAEL (mouse [3]): 4.45 mg/kg/day
- NEL (mouse [3]): < 4.45 mg/kg/day
- NOAEL (mouse [3]): < 4.45 mg/kg/day
- LEL (rabbit; [14]): 10 mg/kg/day
- LOAEL (rabbit; [14]): 10 mg/kg/day
- NEL (rabbit; [14]): 5 mg/kg/day
- NOAEL (rabbit; [14]): 5 mg/kg/day
- LEL (rabbit; [15]): 10 mg/kg/day
- LOAEL (rabbit; [15]): 10 mg/kg/day
- NEL (rabbit; [15]): 5 mg/kg/day
- NOAEL (rabbit; [15]): 5 mg/kg/day
- LEL (dog [4]): 3 mg/kg/day
- LOAEL (dog [4]): 3 mg/kg/day
- NEL (dog [4]): 1 mg/kg/day
- NOAEL (dog [4]): 1 mg/kg/day
- LOAEL (dog [5]; [16]): 6 mg/kg/day
- NOAEL (dog [5]; [16]): 3 mg/kg/day
- LEL (dog [5]; [17]): 3 mg/kg/day
- NEL (dog [5]; [17]): < 3 mg/kg/day
- LEL (rat [6]): 4.9 mg/kg/day
- LOAEL (rat [6]): 4.9 mg/kg/day
- NEL (rat [6]): 2.4 mg/kg/day
- NOAEL (rat [6]): 2.4 mg/kg/day
- LEL (rat [7]; [18]): 3.32 mg/kg/day
- LOAEL (rat [7]; [18]): 3.32 mg/kg/day
- NEL (rat [7]; [18]): 1.66 mg/kg/day
- NOAEL (rat [7]; [18]): 1.66 mg/kg/day
- LEL (rat [7]; [19]): 5.07 mg/kg/day
- LOAEL (rat [7]; [19]): > 5.07 mg/kg/day
- NEL (rat [7]; [19]): 3.32 mg/kg/day
- NOAEL (rat [7]; [19]): ≥ 5.07 mg/kg/day

SMILES: CC(C)(C)c1cc(O)ccc1O [tert-Butylhydroquinone]
- LOAEL (mouse [8]; [17]): 600 mg/kg/day
- LEL (mouse [8]; [20]): 600 mg/kg/day
- NEL (mouse [8]; [20]): 300 mg/kg/day
- NOAEL (mouse [8]; [20]): 300 mg/kg/day
- LEL (rat [9]; [21]): 750 mg/kg/day
- NEL (rat [9]; [21]): 400 mg/kg/day
- LOAEL (rat [9]; [22]): 1000 mg/kg/day
- NOAEL (rat [9]; [22]): 500 mg/kg/day
- LEL (rat [9]; [23]): 200 mg/kg/day
- NEL (rat [9]; [23]): < 200 mg/kg/day
- LOAEL (rat [9]; group: systemic, systemic / in life observation / body weight / body weight + systemic / in life observation / body weight / offspring (pup) weight): 400 mg/kg/day
- NOAEL (rat [9]; group: systemic, systemic / in life observation / body weight / body weight + systemic / in life observation / body weight / offspring (pup) weight + …): 200 mg/kg/day
- LEL (rat [9]; [24]): 200 mg/kg/day
- NEL (rat [9]; [24]): < 200 mg/kg/day
- LOAEL (mouse [10]; systemic / in life observation / body weight / body weight + systemic / in life observation / body weight / body weight gain): 1950 mg/kg/day
- LEL (mouse [10]; [25]): 1950 mg/kg/day
- NEL (mouse [10]; [25]): 880 mg/kg/day
- NOAEL (mouse [10]; [25]): 880 mg/kg/day
